According to US5326774A, “Pharmaceutical preparation of antihypertensive, antianginal, antiarrhythmic and antiglaucomic action” (priority 1992, dated 1994):
“Also recorded” adds a separate entry of the source. Read-outs that look alike come from different tables or passages of the source.

Experiments:
[1] = test system: electrically induced ventricular fibrillation; assay: Threshold of electrically induced ventricular fibrillation in anesthetized cats; assay type: in vivo, cat
experimental animals = assay: Chronic toxicity, intragastric; assay type: in vivo
[2] = test system: strophantin-induced arrhythmia; assay type: in vivo, guinea pig
coronary vessels = assay: Coronary vessel dilatation and myocardial perfusion in anesthetized rats; assay type: in vivo, rat; details: 0.1 mg/kg i.v. (compound of the invention); hydrochloride
Excerpt: The coronarodilative effect of the compound according to the invention is not associated with its β- and α-adrenoceptor blocking activity and its influence on the systemic perfusion pressure and pump function of the heart. […]

β-adrenoceptor [3] = assay: Specificity of β-adrenoceptor blocking effect: positive inotropism
Excerpt: Thus, the compound of the invention relates to specific β-adrenoceptor blocking agents.

β1-adrenoceptor [4] = target: T1, β1-adrenoceptor (Rattus norvegicus, UniProt P18090); assay: Oral administration, isadrin-initiated positive chronotropism in rats; assay type: in vivo
T1 construct: positive chronotropic and depressor effects in the anesthetized rats; from tissue; host or cells: whole living rat (heart rate response to isadrin); endogenous receptor
Experimental: The effects of oral administration of the compound according to the invention as compared with the known drugs on the isadrin-initiated positive chronotropism in rats were tested.

ventricular fibrillation = assay: Ventricular fibrillation during acute coronary occlusion and reperfusion in anesthetized dogs; assay type: in vivo, dog; details: single animals, hydrochloride
β2-adrenoceptor = assay: Isadrin's depressor effect, i.v., anesthetized cats; assay type: in vivo, cat
Excerpt: (§1) The influence of intravenous injection of the compound according to the invention as compared with the known drugs on […] positive chronotropic and depressor effects in the anesthetized cats was studied.

arterial pressure [5] = assay: Hypotensive activity in anesthetized cats, i.v.; assay type: in vivo, cat; details: for arterial pressure: control 163±8
β1-adrenoceptor [6] = target: T1, β1-adrenoceptor; assay: Inhibition of isadrin's positive chronotropic effect, i.v., anesthetized rats; assay type: in vivo
β-adrenoceptor [7] = assay: Partial agonistic activity and non-specific membrane-stabilizing effect
arterial pressure [8] = assay: Arterial pressure and heart rate in conscious normotensive rats, oral; assay type: in vivo, rat; details: 10 and 50 mg/kg oral, 1 hour
[9] = test system: mesaton-initiated pressor effect; assay: Mesaton-initiated pressor effect in anesthetized rats; assay type: in vivo, rat
[10] = test system: intraocular tension of intact rabbit eyes; details: for Average decrease of intraocular tension OD, M ± m / Intraocular tension level OD, M ± m: 1% solution
Experimental: The effects of the compound according to the invention on intraocular tension and hydrodynamics of the eye was tested in 28 chinchilla rabbits with body weight of 2.5-3.5 kg.
The left animal eyes were control wherein using the same procedure a diluent was instilled.

β1-adrenoceptor [11] = assay: Isadrin's positive chronotropic effect, i.v., anesthetized cats; assay type: in vivo, cat
Excerpt: as §1

heart rate = assay: Heart rate in anesthetized rats, i.v.; assay type: in vivo, rat; details: for heart rate: control 271±7
Experimental: β-adrenoceptor blocking activity of the active principle of the pharmaceutical preparation of the invention was studied. […]. The test substances were injected to several groups of animals (6-10 individuals each) in the graded doses of 0.001, 0.0025, 0.01, 0.025, and 0.1 mg/kg.
From the dosage of […] it gave rise to the lowering of arterial pressure (from 159±9 in the control to 141±11, 127±10 and 123 ±11 mm Hg in the dosages of 0.01, 0.025 and 0.1 mg/kg). From the dosage of 0.0025 mg/kg the compound of the invention gave rise to the dose-related suppression of the isadrin-initiated depressor effect (by 12,63, 82 and 90% in doses of 0.0025, 0.01, 0.025 and 0.1 mg/kg) and, starting from the dosage of […], a positive chronotropic (by 25, 46 and 78% in doses of 0.01, 0.025 said 0.1 mg/kg, respectively) effect.

[12] = Solubility of the active principle; assay type: physicochemical
β-adrenoceptor [13] = assay: β-adrenoceptor blocking effect duration; details: in vivo
arterial pressure [14] = assay: Antihypertensive effect in rats with spontaneous hypertension; assay type: in vivo, rat

T1 sequence (P18090 whole entry): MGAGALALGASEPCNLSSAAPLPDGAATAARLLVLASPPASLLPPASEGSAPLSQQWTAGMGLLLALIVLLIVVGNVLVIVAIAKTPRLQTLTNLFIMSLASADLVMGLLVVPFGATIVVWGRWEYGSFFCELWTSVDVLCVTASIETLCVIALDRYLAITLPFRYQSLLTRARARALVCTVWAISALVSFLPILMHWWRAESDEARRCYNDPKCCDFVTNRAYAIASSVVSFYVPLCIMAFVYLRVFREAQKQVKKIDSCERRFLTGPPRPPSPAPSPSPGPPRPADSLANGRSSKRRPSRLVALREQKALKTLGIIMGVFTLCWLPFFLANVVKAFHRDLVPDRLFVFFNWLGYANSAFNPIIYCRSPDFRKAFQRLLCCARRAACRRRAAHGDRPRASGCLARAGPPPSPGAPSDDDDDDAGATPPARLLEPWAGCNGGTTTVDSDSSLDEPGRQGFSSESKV

SMILES: Cc1noc(COc2ccccc2OCC(O)CNC(C)(C)C)n1.Cl (stereo not drawn) [Compound of the invention, 3-methyl-5-[2-(3-tert.butylamino-2-hydroxypropoxy)phenoxymethyl]-1,2,4-oxadiazole hydrochloride]
- threshold of electrically induced ventricular fibrillation ([1]; 1 mg/kg): did not change
- threshold of electrically induced ventricular fibrillation ([1]; 5 mg/kg): increased considerably this threshold
- value of increasing threshold compared with propranolol and oxprenolol ([1]; 5 mg/kg): higher
- antiarrhythmic activity and efficacy (ventricular fibrillation threshold, strophanthin arrhythmia) ([1]; compared with propranolol, oxprenolol, pindolol and labetalol): superior to propranolol, oxprenolol, pindolol and labetalol
- biochemical blood values (experimental animals; 5 and 30 mg/kg, 6 months): no effect on biochemical blood values
- clinical blood values (experimental animals; 5 and 30 mg/kg, 6 months): did not change the clinical blood values
- influence on behavior, appearance, body functions (experimental animals; 5 and 30 mg/kg, 6 months): not exert an essential influence
- locally irritant effect (experimental animals; 5 and 30 mg/kg, 6 months): did not exert any locally irritant effect
- pathologic alterations in structure of internals (experimental animals; 5 and 30 mg/kg, 6 months): did not lead to pathologic alterations
- chronic toxicity tolerance (experimental animals; intragastric): excellent tolerance
- Arrhythmogenic dose of strophantin as compared with control: extrasystoles ([2]; 0.1 mg/kg i.v.): 118%
- Dose of strophantin as compared with control: ventricular fibrillation ([2]; 0.1 mg/kg i.v.): 115.6%
- Lethal dose of strophantin as compared with control: animal death ([2]; 0.1 mg/kg i.v.): 118.7%
- Arrhythmogenic dose of strophantin as compared with control: extrasystoles ([2]; 0.3 mg/kg i.v.): 125.9%
- Dose of strophantin as compared with control: ventricular fibrillation ([2]; 0.3 mg/kg i.v.): 113.1%
- Lethal dose of strophantin as compared with control: animal death ([2]; 0.3 mg/kg i.v.): 123.5%
- Arrhythmogenic dose of strophantin as compared with control: extrasystoles ([2]; 1.0 mg/kg i.v.): 148.2%
- Dose of strophantin as compared with control: ventricular fibrillation ([2]; 1.0 mg/kg i.v.): 147.2%
- Lethal dose of strophantin as compared with control: animal death ([2]; 1.0 mg/kg i.v.): 142.6%
- Arrhythmogenic dose of strophantin as compared with control: extrasystoles ([2]; 3.0 mg/kg i.v.): 157.0%
- Dose of strophantin as compared with control: ventricular fibrillation ([2]; 3.0 mg/kg i.v.): 170.2%
- Lethal dose of strophantin as compared with control: animal death ([2]; 3.0 mg/kg i.v.): 150.7%
- antiarrhythmic activity and efficacy ([2]; 0.1-3.0 mg/kg i.v.): superior to propranolol, oxprenolol and labetalol
- coronary vessel dilatation / myocardial perfusion (coronary vessels): dilatation (with confidence) of coronary vessels; also recorded: direct coronarodilating effect
- effect on positive inotropism of isadrin (β-adrenoceptor [3]): completely arrested
- effect on positive inotropism of strophanthin, calcium chloride and theophylline (β-adrenoceptor [3]): did not inhibit but even somewhat enhanced
- β1-adrenoceptor blocking activity compared with pindolol (β1-adrenoceptor [4]): inferior to pindolol
- β1-adrenoceptor blocking activity, superior to labetalol by (β1-adrenoceptor [4]): 35 times
- β1-adrenoceptor blocking activity, superior to propranolol by (β1-adrenoceptor [4]): 14.8 times
- Ventricular fibrillation during acute occlusion and reperfusion (ventricular fibrillation; 10 min after injection): R
- Ventricular fibrillation during acute occlusion and reperfusion (ventricular fibrillation; 60 min after injection): R
- β2-adrenoceptor blocking activity, times as high as labetalol (β2-adrenoceptor): 114 times
- β2-adrenoceptor blocking activity, times as high as oxprenolol (β2-adrenoceptor): 43 times
- β2-adrenoceptor blocking activity, times as high as propranolol (β2-adrenoceptor): 2 times
- arterial pressure (arterial pressure [5]; 0.02 mg/kg): 147±12 mm Hg
- arterial pressure (arterial pressure [5]; 0.1 mg/kg): 132±5 mm Hg
- arterial pressure (arterial pressure [5]; 0.3 mg/kg): 96±7 mm Hg
- arterial pressure (arterial pressure [5]; 1.0 mg/kg): 90±7 mm Hg
- arterial pressure (arterial pressure [5]; 5.0 mg/kg): 67±7 mm Hg
- ED20 (arterial pressure [5]; Felis catus, iv, anesthetized cats, read-out: Dose resulting in lowering of arterial pressure by 20%, ED20): 0.11 ± 0.01 mg/kg
- minimal effective dose (arterial pressure [5]; Felis catus, iv, cats, read-out: dosage from which arterial pressure lowered): 0.02 mg/kg
- hypotensive effect compared with labetalol (arterial pressure [5]; anesthetized normotensive cats, i.v.): stronger hypotensive effect as compared with labetalol
- hypotensive activity, times as high as labetalol (arterial pressure [5]; comparison of ED20): 9 times
- hypotensive activity and duration compared with labetalol (arterial pressure [5]; in vivo): superior to labetalol by hypotensive activity and duration of such effect
- duration of hypotensive effect (arterial pressure [5]; large dosages): 3 to 4 h
- duration of hypotensive effect (arterial pressure [5]; small dosages): 0.083 to 0.5 h
- suppression of isadrin positive chronotropic effect (β1-adrenoceptor [6]; 0.01 mg/kg i.v.): 25%
- suppression of isadrin positive chronotropic effect (β1-adrenoceptor [6]; 0.025 mg/kg i.v.): 46%
- suppression of isadrin positive chronotropic effect (β1-adrenoceptor [6]; 0.1 mg/kg i.v.): 78%
- β1-adrenoceptor blocking activity compared with pindolol (β1-adrenoceptor [6]; comparison of ED50, rats i.v.): close to pindolol
- β1-adrenoceptor blocking activity, factor over labetalol (β1-adrenoceptor [6]; comparison of ED50, rats i.v.): 23
- β1-adrenoceptor blocking activity, factor over oxprenolol (β1-adrenoceptor [6]; comparison of ED50, rats i.v.): 9
- β1-adrenoceptor blocking activity, factor over propranolol (β1-adrenoceptor [6]; comparison of ED50, rats i.v.): 12
- dosage from which isadrin positive chronotropic effect suppressed (β1-adrenoceptor [6]; i.v.): 0.1 mg/kg
- ED50 (β1-adrenoceptor [6]; rat, iv, read-out: Dosage inhibiting isadrin's positive chronotropism by 50% (ED50)): 0.03 ± 0.001 mg/kg
- non-specific membrane-stabilizing effect (β-adrenoceptor [7]): has a non-specific membrane-stabilizing effect
- partial agonistic activity (β-adrenoceptor [7]): fails to exhibit a partial agonistic activity
- arterial pressure (arterial pressure [8]): arterial pressure lowering
- heart rate (arterial pressure [8]): a decrease in heart rate
- effect on mesaton pressor effect ([9]; 3 mg/kg i.v.): did not change
- suppression of mesaton pressor effect ([9]; 10 mg/kg i.v., average): 76%
- tolerability for rabbit eyes ([10]; 0.5, 1 and 2% solutions): well-tolerable
- Average decrease of intraocular tension OD, M ± m ([10]; 1 hour): 1.9 ± 0.3 ram of Hg column
- Intraocular tension level OD, M ± m ([10]; 1 hour): 17.1 ± 0.3 ram of Hg column
- Average decrease of intraocular tension OD, M ± m ([10]; 2 hours): 2.6 ± 0.2 ram of Hg column
- Intraocular tension level OD, M ± m ([10]; 2 hours): 16.5 ± 0.4 ram of Hg column
- Average decrease of intraocular tension OD, M ± m ([10]; 3 hours): 2.3 ± 0.3 ram of Hg column
- Intraocular tension level OD, M ± m ([10]; 3 hours): 17.1 ± 0.4 ram of Hg column
- Average decrease of intraocular tension OD, M ± m ([10]; 4 hours): 2.3 ± 0.3 ram of Hg column
- Intraocular tension level OD, M ± m ([10]; 4 hours): 17.1 ± 0.2 ram of Hg column
- Average decrease of intraocular tension OD, M ± m ([10]; 5 hours): 1.5 ± 0.5 ram of Hg column
- Intraocular tension level OD, M ± m ([10]; 5 hours): 17.6 ± 0.4 ram of Hg column
- Average decrease of intraocular tension OD, M ± m ([10]; 6 hours): 1.2 ± 0.4 ram of Hg column
- Intraocular tension level OD, M ± m ([10]; 6 hours): 17.8 ± 0.4 ram of Hg column
- Average decrease of intraocular tension OD, M ± m ([10]; 24 hours): 0.8 ± 0.5 ram of Hg column
- Intraocular tension level OD, M ± m ([10]; 24 hours): 18.2 ± 0.7 ram of Hg column
- mechanism of lowering of intraocular tension ([10]; intact rabbit eyes): decrease in secretion of surface water (watery moisture)
- duration of lowering of intraocular tension ([10]; intact rabbit eyes, 0.5, 1 and 2% solutions): 6 to 8 h
- irritating effect ([10]; rabbit, in vivo): no irritating effect
- pupil value ([10]; rabbit, in vivo): do not change considerably the pupil value
- β1-adrenoceptor blocking activity compared with pindolol (β1-adrenoceptor [11]): close to pindolol
- β1-adrenoceptor blocking activity, factor over labetalol (β1-adrenoceptor [11]): 550
- β1-adrenoceptor blocking activity, factor over oxprenolol (β1-adrenoceptor [11]): 35
- β1-adrenoceptor blocking activity, factor over propranolol (β1-adrenoceptor [11]): 3.5
- heart rate (heart rate; 0.0025 mg/kg i.v.): 249±11 beat/min.
- heart rate (heart rate; 0.01 mg/kg i.v.): 238±16 beat/min.
- heart rate (heart rate; 0.025 mg/kg i.v.): 204±14 beat/min.
- heart rate (heart rate; 0.1 mg/kg i.v.): 181±14 beat/min.
- minimal effective dose (heart rate; Rattus norvegicus, iv, read-out: dosage from which heart rate decreased): 0.0025 mg/kg
- solubility in ethyl ether [12]: substantially insoluble
- solubility in water, chloroform, ethanol [12]: readily soluble
- β-adrenoceptor blocking effect duration (β-adrenoceptor [13]): somewhat superior to propranolol and oxprenolol
- hypotensive and antihypertensive properties (arterial pressure [14]): shows hypotensive and antihypertensive properties
